# Laboratory results from patent US9125913B2, “Bcl-2-selective apoptosis-inducing agents for the treatment of cancer and immune diseases” (AbbVie Inc., priority 2008, dated 2015).
# Tested on: GST-Bcl-2
# Assay: TR-FRET binding assay, Bcl-2
# Details: TR-FRET Ki values
# Summary of the method: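 Ki values come from Wang's competitive-binding equation applied to TR-FRET signal (excitation 340/35 nm; emission 520/525 nm F-Bak peptide, 495/510 nm Tb antibody). Protein, probe and antibody incubated with compound 3 h at room temperature; dilution series began at 50 μM as 2× stock in 10% DMSO.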
row,SMILES,Binding selectivity ratio (Bcl-XL Ki/Bcl-2 Ki)
1,"CC(C1=C(c2ccc(Cl)cc2)CC(C)(C)CC1)N1CCN(c2ccc(C(=O)NS(=O)(=O)c3ccc(NN4CCN(C)CC4)c([N+](=O)[O-])c3)c(Oc3ccc4[nH]ccc4c3)c2)CC1 (stereo not shown) [EXAMPLE 254, 4-(4-{1-[2-(4-chlorophenyl)-4,4-dimethylcyclohex-1-en-1-yl]ethyl}piperazin-1-yl)-2-(1H-indol-5-yloxy)-N-({4-[(4-methylpiperazin-1-yl)amino]-3-nitrophenyl}sulfonyl)benzamide]",421.7
2,"C[C@H](c1ccccc1-c1ccc(Cl)cc1)N1CCN(c2ccc(C(=O)NS(=O)(=O)c3ccc(NCC4CCOCC4)c([N+](=O)[O-])c3)c(Oc3cccc4[nH]ccc34)c2)CC1 [EXAMPLE 255, 4-{4-[(1R)-1-(4′-chloro-1,1′-biphenyl-2-yl)ethyl]piperazin-1-yl}-2-(1H-indol-4-yloxy)-N-({3-nitro-4-[(tetrahydro-2H-pyran-4-ylmethyl)amino]phenyl}sulfonyl)benzamide]",>84.2
3,"C[C@@H](c1ccccc1-c1ccc(Cl)cc1)N1CCN(c2ccc(C(=O)NS(=O)(=O)c3ccc(NCC4CCOCC4)c([N+](=O)[O-])c3)c(Oc3cccc4[nH]ccc34)c2)CC1 [EXAMPLE 256, 4-{4-[(1S)-1-(4′-chloro-1,1′-biphenyl-2-yl)ethyl]piperazin-1-yl}-2-(1H-indol-4-yloxy)-N-({3-nitro-4-[(tetrahydro-2H-pyran-4-ylmethyl)amino]phenyl}sulfonyl)benzamide]",>5519.8
4,"CC(C1=C(c2ccc(Cl)cc2)CC(C)(C)CC1)N1CCN(c2ccc(C(=O)NS(=O)(=O)c3ccc(NCCCN4CCOCC4)c([N+](=O)[O-])c3)c(Oc3ccc4[nH]ccc4c3)c2)CC1 (stereo not shown) [EXAMPLE 257, 4-(4-{1-[2-(4-chlorophenyl)-4,4-dimethylcyclohex-1-en-1-yl]ethyl}piperazin-1-yl)-2-(1H-indol-5-yloxy)-N-({4-[(3-morpholin-4-ylpropyl)amino]-3-nitrophenyl}sulfonyl)benzamide]",100.2
5,"CC(C1=C(c2ccc(Cl)cc2)CC(C)(C)CC1)N1CCN(c2ccc(C(=O)NS(=O)(=O)c3ccc(NC4CCN(C5CCOCC5)CC4)c([N+](=O)[O-])c3)c(Oc3ccc4[nH]ccc4c3)c2)CC1 (stereo not shown) [EXAMPLE 258, 4-(4-{1-[2-(4-chlorophenyl)-4,4-dimethylcyclohex-1-en-1-yl]ethyl}piperazin-1-yl)-2-(1H-indol-5-yloxy)-N-({3-nitro-4-[(1-tetrahydro-2H-pyran-4-ylpiperidin-4-yl)amino]phenyl}sulfonyl)benzamide]",86
6,"CC1(C)CCC(CN2CCN(c3ccc(C(=O)NS(=O)(=O)c4ccc(NCC5CCCCC5)c([N+](=O)[O-])c4)c(Oc4ccc5[nH]ccc5c4)c3)CC2)=C(c2ccc(Cl)cc2)C1 [EXAMPLE 259, 4-(4-{[2-(4-chlorophenyl)-4,4-dimethylcyclohex-1-en-1-yl]methyl}piperazin-1-yl)-N-({4-[(cyclohexylmethyl)amino]-3-nitrophenyl}sulfonyl)-2-(1H-indol-5-yloxy)benzamide]",>330.9
7,"CC1(C)CCC(CN2CCN(c3ccc(C(=O)NS(=O)(=O)c4ccc(NN5CCOCC5)c([N+](=O)[O-])c4)c(Oc4ccc5[nH]ccc5c4)c3)CC2)=C(c2ccc(Cl)cc2)C1 [EXAMPLE 260, 4-(4-{[2-(4-chlorophenyl)-4,4-dimethylcyclohex-1-en-1-yl]methyl}piperazin-1-yl)-2-(1H-indol-5-yloxy)-N-{[4-(morpholin-4-ylamino)-3-nitrophenyl]sulfonyl}benzamide]",>607.2
8,"CC1(C)CCC(CN2CCN(c3ccc(C(=O)NS(=O)(=O)c4ccc(NN5CCOCC5)c([N+](=O)[O-])c4)c(Oc4cccc5[nH]ccc45)c3)CC2)=C(c2ccc(Cl)cc2)C1 [EXAMPLE 262, 4-(4-{[2-(4-chlorophenyl)-4,4-dimethylcyclohex-1-en-1-yl]methyl}piperazin-1-yl)-2-(1H-indol-4-yloxy)-N-{[4-(morpholin-4-ylamino)-3-nitrophenyl]sulfonyl}benzamide]",219.9
9,"CC1(C)CCC(CN2CCN(c3ccc(C(=O)NS(=O)(=O)c4ccc(NC5CCOCC5)c([N+](=O)[O-])c4)c(Oc4ccc5[nH]ccc5c4)c3)CC2)=C(c2ccc(Cl)cc2)C1 [EXAMPLE 263, 4-(4-{[2-(4-chlorophenyl)-4,4-dimethylcyclohex-1-en-1-yl]methyl}piperazin-1-yl)-2-(1H-indol-5-yloxy)-N-{[3-nitro-4-(tetrahydro-2H-pyran-4-ylamino)phenyl]sulfonyl}benzamide]",>2090.0
10,"CC1(C)CCC(CN2CCN(c3ccc(C(=O)NS(=O)(=O)c4ccc(NCC5(C)COC5)c([N+](=O)[O-])c4)c(Oc4ccc5[nH]ccc5c4)c3)CC2)=C(c2ccc(Cl)cc2)C1 [EXAMPLE 264, 4-(4-{[2-(4-chlorophenyl)-4,4-dimethylcyclohex-1-en-1-yl]methyl}piperazin-1-yl)-2-(1H-indol-5-yloxy)-N-[(4-{[(3-methyloxetan-3-yl)methyl]amino}-3-nitrophenyl)sulfonyl]benzamide]",>2808.4
11,"COC1CCC(Nc2ccc(S(=O)(=O)NC(=O)c3ccc(N4CCN(CC5=C(c6ccc(Cl)cc6)CC(C)(C)CC5)CC4)cc3Oc3ccc4[nH]ccc4c3)cc2[N+](=O)[O-])CC1 (stereo not shown) [EXAMPLE 265, 4-(4-{[2-(4-chlorophenyl)-4,4-dimethylcyclohex-1-en-1-yl]methyl}piperazin-1-yl)-2-(1H-indol-5-yloxy)-N-({4-[(4-methoxycyclohexyl)amino]-3-nitrophenyl}sulfonyl)benzamide]",>388.8
12,"CC1(C)CCC(CN2CCN(c3ccc(C(=O)NS(=O)(=O)c4ccc(NCCCN5CCS(=O)(=O)CC5)c([N+](=O)[O-])c4)c(Oc4ccc5[nH]ccc5c4)c3)CC2)=C(c2ccc(Cl)cc2)C1 [EXAMPLE 266, 4-(4-{[2-(4-chlorophenyl)-4,4-dimethylcyclohex-1-en-1-yl]methyl}piperazin-1-yl)-N-[(4-{[3-(1,1-dioxidothiomorpholin-4-yl)propyl]amino}-3-nitrophenyl)sulfonyl]-2-(1H-indol-5-yloxy)benzamide]",>3607.7
13,"CC1(C)CCC(CN2CCN(c3ccc(C(=O)NS(=O)(=O)c4ccc(NCCN5CCCCC5=O)c([N+](=O)[O-])c4)c(Oc4ccc5[nH]ccc5c4)c3)CC2)=C(c2ccc(Cl)cc2)C1 [EXAMPLE 267, 4-(4-{[2-(4-chlorophenyl)-4,4-dimethylcyclohex-1-en-1-yl]methyl}piperazin-1-yl)-2-(1H-indol-5-yloxy)-N-[(3-nitro-4-{[2-(2-oxopiperidin-1-yl)ethyl]amino}phenyl)sulfonyl]benzamide]",>1453.3
14,"CC1(C)CCC(CN2CCN(c3ccc(C(=O)NS(=O)(=O)c4ccc(NCCN5CCNC5=O)c([N+](=O)[O-])c4)c(Oc4ccc5[nH]ccc5c4)c3)CC2)=C(c2ccc(Cl)cc2)C1 [EXAMPLE 268, 4-(4-{[2-(4-chlorophenyl)-4,4-dimethylcyclohex-1-en-1-yl]methyl}piperazin-1-yl)-2-(1H-indol-5-yloxy)-N-[(3-nitro-4-{[2-(2-oxoimidazolidin-1-yl)ethyl]amino}phenyl)sulfonyl]benzamide]",1563.9
15,"CC1(C)CCC(CN2CCN(c3ccc(C(=O)NS(=O)(=O)c4ccc(N5CCOCC5)c([N+](=O)[O-])c4)c(Oc4ccc5[nH]ccc5c4)c3)CC2)=C(c2ccc(Cl)cc2)C1 [EXAMPLE 270, 4-(4-{[2-(4-chlorophenyl)-4,4-dimethylcyclohex-1-en-1-yl]methyl}piperazin-1-yl)-2-(1H-indol-5-yloxy)-N-[(4-morpholin-4-yl-3-nitrophenyl)sulfonyl]benzamide]",>199.1
16,"COC1CCN(c2ccc(S(=O)(=O)NC(=O)c3ccc(N4CCN(CC5=C(c6ccc(Cl)cc6)CC(C)(C)CC5)CC4)cc3Oc3ccc4[nH]ccc4c3)cc2[N+](=O)[O-])CC1 [EXAMPLE 271, 4-(4-{[2-(4-chlorophenyl)-4,4-dimethylcyclohex-1-en-1-yl]methyl}piperazin-1-yl)-2-(1H-indol-5-yloxy)-N-{[4-(4-methoxypiperidin-1-yl)-3-nitrophenyl]sulfonyl}benzamide]",>107.2
17,"O=C(NS(=O)(=O)c1ccc(NCC2CCOCC2)c([N+](=O)[O-])c1)c1ccc(N2CCN(CC3=C(c4ccc(Cl)cc4)CCC(N4CCCC4)C3)CC2)cc1Oc1ccc2[nH]ccc2c1 (stereo not shown) [EXAMPLE 272, 4-(4-{[2-(4-chlorophenyl)-5-pyrrolidin-1-ylcyclohex-1-en-1-yl]methyl}piperazin-1-yl)-2-(1H-indol-5-yloxy)-N-({3-nitro-4-[(tetrahydro-2H-pyran-4-ylmethyl)amino]phenyl}sulfonyl)benzamide]",>58011.8
18,"CC1(C)CCC(CN2CCN(c3ccc(C(=O)NS(=O)(=O)c4ccc(NCCN5CCNC(=O)C5)c([N+](=O)[O-])c4)c(Oc4ccc5[nH]ccc5c4)c3)CC2)=C(c2ccc(Cl)cc2)C1 [EXAMPLE 273, 4-(4-{[2-(4-chlorophenyl)-4,4-dimethylcyclohex-1-en-1-yl]methyl}piperazin-1-yl)-2-(1H-indol-5-yloxy)-N-[(3-nitro-4-{[2-(3-oxopiperazin-1-yl)ethyl]amino}phenyl)sulfonyl]benzamide]",2396.1
19,"CN(C)CCOc1ccc(-c2ccc(Cl)cc2)c(CN2CCN(c3ccc(C(=O)NS(=O)(=O)c4ccc(NN5CCN(C)CC5)c([N+](=O)[O-])c4)c(Oc4cccc5[nH]ccc45)c3)CC2)c1 [EXAMPLE 274, 4-[4-({4′-chloro-4-[2-(dimethylamino)ethoxy]-1,1′-biphenyl-2-yl}methyl)piperazin-1-yl]-2-(1H-indol-4-yloxy)-N-({4-[(4-methylpiperazin-1-yl)amino]-3-nitrophenyl}sulfonyl)benzamide]",244.6
